These are literature values, as cited in US7794750B2, “Controlled-release formulations, method of manufacture, and use thereof” (Mutual Pharmaceutical Company, Inc., priority 2008, dated 2010).

For this series the following is noted: 25° C., pH of about 7.

Counter-ions that a name gives are not always drawn.

For `OCCOCCN1CCN(C2=Nc3ccccc3Sc3ccccc32)CC1` [Quetiapine fumarate, quetiapine fumarate], the aqueous solubility (commonly the concentration that dissolves in the medium under given conditions) is 3290 µg/mL.
